Data on one compound can be found in publication PMC9026148, “Pre-Clinical Study Evaluating Novel Protein Phosphatase 2A Activators as Therapeutics for Neuroblastoma” (Cancers, 2022).

The data set is described as follows: Plasma levels after oral dose in mice. Conditions: male ICR mice, bolus oral dose 50 mg/kg in 1:1:8 DMA:Solutol:water; compared to DBK-1154. The data set is classed as in vivo, mouse. How it is done:
Blood aliquots were collected via cardiac puncture (300 µL) sampling from anesthetized mice in tubes coated with lithium heparin, mixed gently, then kept on ice and centrifuged at 2500× g for 15 min at 4 °C, within 1 h of collection. The plasma was harvested and kept frozen at −70 °C until further processing.
The plasma samples were processed using protein precipitation and analyzed by LC-MS/MS. A plasma calibration curve was generated. Aliquots of drug-free plasma were spiked with the test articles at the specified concentration levels. The spiked plasma samples were processed together with the unknown plasma samples using the same procedure. The processed plasma samples were placed in the autosampler until the LC-MS/MS analysis, at which time peak areas were recorded, and the concentrations of the test articles in the unknown plasma samples were determined using the respective calibration curve. The reportable linear range of the assay was determined, along with the lower limit of quantitation (LLOQ).
Plots of plasma concentration of test articles, ATUX-792 and DBK-1154, vs. time are constructed and shown in Supplementary Figure S2.
levels compared to DBK -1154. Serum concentration after bolus oral dose of 50 mg/kg in
1:1:8 DMA:Solutol:water (3 animals per time point). Blood aliquots were collected via car- […]
quantitative bioanalysis. […]

Take `O=S(=O)(N[C@H]1COC[C@@H](n2c3ccc(Cl)cc3c3cc(Cl)ccc32)[C@@H]1O)c1ccc(OC(F)(F)F)cc1` [ATUX-792]: the “oral bioavailability / plasma levels” value is on record as “good oral bioavailability”.
